{"source": "patent US20250101029A1", "about": "“ORGANIC COMPOUNDS” (INTRA-CELLULAR THERAPIES, INC., priority 2022, published 2025)", "conditions_in_all_cases": "qualitative statement", "key": {"D2": {"target": "D2 (Homo sapiens, UniProt P14416)", "sequence (P14416 1-414 isoform P14416-2)": "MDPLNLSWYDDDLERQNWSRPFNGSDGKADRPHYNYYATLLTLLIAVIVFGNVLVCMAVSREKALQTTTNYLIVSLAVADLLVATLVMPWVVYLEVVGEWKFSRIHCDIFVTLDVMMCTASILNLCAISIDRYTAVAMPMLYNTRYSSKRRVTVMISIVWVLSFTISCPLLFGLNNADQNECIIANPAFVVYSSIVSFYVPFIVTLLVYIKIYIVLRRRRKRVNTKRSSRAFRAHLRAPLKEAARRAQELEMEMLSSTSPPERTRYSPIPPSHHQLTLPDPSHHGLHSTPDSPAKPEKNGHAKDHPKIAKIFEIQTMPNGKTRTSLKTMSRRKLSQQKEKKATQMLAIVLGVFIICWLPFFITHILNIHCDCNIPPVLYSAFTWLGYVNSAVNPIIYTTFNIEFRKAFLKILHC", "experiment": "Receptor binding, D2"}, "SERT": {"target": "SERT (Homo sapiens, UniProt P31645)", "sequence (P31645 whole entry)": "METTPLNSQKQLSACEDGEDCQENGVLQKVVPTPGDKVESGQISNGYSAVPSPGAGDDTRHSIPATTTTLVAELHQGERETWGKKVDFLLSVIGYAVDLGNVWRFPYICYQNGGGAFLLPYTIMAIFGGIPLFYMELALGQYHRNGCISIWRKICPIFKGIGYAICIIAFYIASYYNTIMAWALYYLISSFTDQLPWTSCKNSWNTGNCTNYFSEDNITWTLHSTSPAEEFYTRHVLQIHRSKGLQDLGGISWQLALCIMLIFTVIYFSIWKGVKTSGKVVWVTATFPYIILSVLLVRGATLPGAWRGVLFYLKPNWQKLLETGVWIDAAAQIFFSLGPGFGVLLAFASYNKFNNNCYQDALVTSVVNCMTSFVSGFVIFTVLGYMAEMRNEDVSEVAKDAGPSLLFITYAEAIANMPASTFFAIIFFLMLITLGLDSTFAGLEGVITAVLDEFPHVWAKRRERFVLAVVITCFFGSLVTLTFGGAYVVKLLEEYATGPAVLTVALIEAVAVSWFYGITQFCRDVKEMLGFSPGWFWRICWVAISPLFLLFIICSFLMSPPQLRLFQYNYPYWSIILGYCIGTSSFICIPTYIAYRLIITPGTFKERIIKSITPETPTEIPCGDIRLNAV", "experiment": "Receptor binding, SERT"}, "D1": {"target": "D1 (Homo sapiens, UniProt P21728)", "sequence (P21728 whole entry)": "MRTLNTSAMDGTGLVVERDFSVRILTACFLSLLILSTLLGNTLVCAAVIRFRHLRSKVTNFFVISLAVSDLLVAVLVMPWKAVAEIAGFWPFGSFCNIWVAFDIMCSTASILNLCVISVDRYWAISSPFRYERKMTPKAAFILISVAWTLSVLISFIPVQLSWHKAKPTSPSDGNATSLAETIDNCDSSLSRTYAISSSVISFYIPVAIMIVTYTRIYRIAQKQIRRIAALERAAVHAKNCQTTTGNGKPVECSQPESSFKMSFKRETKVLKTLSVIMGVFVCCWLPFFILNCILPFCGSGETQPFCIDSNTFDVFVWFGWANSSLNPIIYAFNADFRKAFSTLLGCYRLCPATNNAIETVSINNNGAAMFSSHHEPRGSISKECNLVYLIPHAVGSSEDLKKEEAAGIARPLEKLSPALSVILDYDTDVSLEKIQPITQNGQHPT", "experiment": "Receptor binding, D1"}, "5-HT2A": {"target": "5-HT2A (Homo sapiens, UniProt P28223)", "sequence (P28223 whole entry)": "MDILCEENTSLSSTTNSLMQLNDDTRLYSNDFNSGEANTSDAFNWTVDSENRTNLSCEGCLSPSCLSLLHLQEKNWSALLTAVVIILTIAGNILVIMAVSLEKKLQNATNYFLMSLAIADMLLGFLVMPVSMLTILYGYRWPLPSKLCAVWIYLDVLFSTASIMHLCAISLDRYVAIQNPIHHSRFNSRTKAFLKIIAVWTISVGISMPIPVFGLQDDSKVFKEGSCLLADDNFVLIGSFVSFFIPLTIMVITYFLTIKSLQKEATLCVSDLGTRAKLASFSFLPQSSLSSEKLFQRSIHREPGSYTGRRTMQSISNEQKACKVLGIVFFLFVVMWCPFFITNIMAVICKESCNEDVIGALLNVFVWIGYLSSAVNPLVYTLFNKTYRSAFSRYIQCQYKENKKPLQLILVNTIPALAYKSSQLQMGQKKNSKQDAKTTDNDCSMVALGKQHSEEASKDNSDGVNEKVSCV", "experiment": "Receptor binding, 5-HT2A"}, "Mu opiate receptor": {"target": "Mu opiate receptor (Homo sapiens, UniProt P35372)", "sequence (P35372 whole entry)": "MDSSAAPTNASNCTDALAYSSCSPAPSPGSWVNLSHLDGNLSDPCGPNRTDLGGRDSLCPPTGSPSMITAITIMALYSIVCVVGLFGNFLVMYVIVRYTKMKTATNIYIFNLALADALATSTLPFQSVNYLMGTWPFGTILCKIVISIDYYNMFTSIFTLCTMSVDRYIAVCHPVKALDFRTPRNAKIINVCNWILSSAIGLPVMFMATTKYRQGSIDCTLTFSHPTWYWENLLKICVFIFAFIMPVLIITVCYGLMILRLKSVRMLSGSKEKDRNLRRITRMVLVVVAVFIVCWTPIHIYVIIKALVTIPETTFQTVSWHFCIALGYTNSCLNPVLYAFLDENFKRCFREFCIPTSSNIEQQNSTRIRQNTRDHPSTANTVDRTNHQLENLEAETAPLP", "experiment": "Receptor binding, Mu opiate receptor"}}}
{"smiles": "O=C1CN2c3c(cccc3[C@@H]3CN(CCCOc4ccc(F)cc4)CC[C@H]32)N1", "note": "(racemic) [Example 1, trans-8-(3-(4-fluorophenoxy)propyl)-6b,7,8,9,10,10a-hexahydro-1H-pyrido[3′,4′:4,5]pyrrolo[1,2,3-de]quinoxalin-2(3H)-one]", "values": [{"measurement": "D2 receptor binding, in words", "setting": "D2", "result": "moderate D2 receptor binding"}, {"measurement": "SERT activity, in words", "setting": "SERT", "result": "no SERT activity"}, {"measurement": "D1 receptor binding, in words", "setting": "D1", "result": "very strong"}]}
{"smiles": "O=C1CN2c3c(cccc3[C@@H]3CN(CCCOc4ccc(F)cc4)CC[C@@H]32)N1", "note": "[Compound A]", "values": [{"measurement": "SERT activity, in words", "setting": "SERT", "result": "very little SERT binding"}]}
{"smiles": "O=C1CN2c3c(cccc3[C@H]3CN(CCCOc4ccc(F)cc4)CC[C@H]32)N1", "note": "[Compound B]", "values": [{"measurement": "D2 receptor binding, in words", "setting": "D2", "result": "weak D2 receptor affinity"}, {"measurement": "SERT activity, in words", "setting": "SERT", "result": "no SERT activity"}, {"measurement": "D1 receptor binding, in words", "setting": "D1", "result": "moderately strong D1 receptor binding"}, {"measurement": "5-HT2A receptor activity, in words", "setting": "5-HT2A", "result": "moderately strong"}, {"measurement": "mu-opiate receptor binding, in words", "setting": "Mu opiate receptor", "result": "only weak mu receptor activity"}]}
